Measurements: BigSolDB 2.1

CN(C)CCC=C1c2ccccc2CCc2ccccc21.Cl
solubility (mole fraction)
Conditions	278.15 K	283.15 K	288.15 K	293.15 K	298.15 K	303.15 K	308.15 K	313.15 K	318.15 K	323.15 K
in 2-butoxyethanol	0.0451	0.0494	0.0531	0.0595	0.066	0.0722	0.0793	0.0864	0.0942	0.102
in 2-ethoxyethanol	0.084	0.0895	0.0954	0.101	0.108	0.115	0.123	0.132	0.141	0.151
in 2-methoxyethanol	0.127	0.132	0.138	0.143	0.149	0.155	0.162	0.169	0.177	0.185
in 2-propoxyethanol	0.06	0.0641	0.0686	0.075	0.0814	0.0881	0.0955	0.103	0.111	0.119
in DMF	0.0295	0.0323	0.0354	0.0388	0.0423	0.0466	0.0509	0.0557	0.0611	0.0674
in NMP	0.0311	0.0342	0.0372	0.0412	0.0448	0.0492	0.0543	0.0594	0.0652	0.0716
in ethanol	0.0337	0.0423	0.0528	0.0653	0.0794	0.0938	0.108	0.122	0.136	0.148
in methanol	0.144	0.152	0.16	0.168	0.175	0.183	0.189	0.196	0.202	0.207
in n-butanol	0.0148	0.0187	0.0242	0.0316	0.0405	0.0508	0.0628	0.0765	0.091	0.105
in n-heptanol	0.0101	0.0124	0.0151	0.0184	0.0225	0.0274	0.0333	0.0402	0.0484	0.0581
in n-hexanol	0.0116	0.0145	0.0176	0.0217	0.027	0.0332	0.0407	0.0492	0.0595	0.0712
in n-octanol	0.00215	0.00267	0.00322	0.00388	0.00471	0.00568	0.00688	0.00824	0.00991	0.012
in n-pentanol	0.0127	0.0162	0.02	0.025	0.0321	0.04	0.0497	0.0613	0.0743	0.0887
in n-propanol	0.0218	0.028	0.0357	0.0453	0.0572	0.0708	0.0855	0.101	0.117	0.131
